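Briefly, cells in 96-well plates were exposed to five compound concentrations for 48 h, and endpoints were estimated by linear interpolation. GI50 is the concentration that inhibits growth by half.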 The source made the active and inactive calls. Rule as the data show it: active = GI50 up to about 1.1 µM and inactive = higher.
Columns and labels:
Assay in all cases: NCI tumour cell line growth inhibition, 48 h
786-0 = tested on: 786-0
A549 = tested on: A549
CCRF-CEM = tested on: CCRF-CEM
COLO 205 = tested on: COLO 205
EKVX = tested on: EKVX
HCT-116 = tested on: HCT-116
Hs-578T = tested on: Hs-578T
KM12 = tested on: KM12
LOX IMVI = tested on: LOX IMVI
MDA-MB-231 = tested on: MDA-MB-231
NCI-H23 = tested on: NCI-H23
OVCAR-3 = tested on: OVCAR-3
SF-268 = tested on: SF-268
SK-MEL-28 = tested on: SK-MEL-28
SK-MEL-2 = tested on: SK-MEL-2
SK-MEL-5 = tested on: SK-MEL-5
SR = tested on: SR
SW-620 = tested on: SW-620
U-251 = tested on: U-251
K562 = tested on: K562

| SMILES | GI50 (786-0) | GI50 (A549) | GI50 (CCRF-CEM) | GI50 (COLO 205) | GI50 (EKVX) | GI50 (HCT-116) | GI50 (Hs-578T) | GI50 (KM12) | GI50 (LOX IMVI) | GI50 (MDA-MB-231) | GI50 (NCI-H23) | GI50 (OVCAR-3) | GI50 (SF-268) | GI50 (SK-MEL-28) | GI50 (SK-MEL-2) | GI50 (SK-MEL-5) | GI50 (SR) | GI50 (SW-620) | GI50 (U-251) | GI50 (K562) |
| --- | --- | --- | --- | --- | --- | --- | --- | --- | --- | --- | --- | --- | --- | --- | --- | --- | --- | --- | --- | --- |
| O=C1NC(N2CCCCC2)=N/C1=C\c1ccco1 | > 100 µM (inactive) | > 100 µM (inactive) | > 100 µM (inactive) | > 100 µM (inactive) | 78.2 µM (inactive) | > 100 µM (inactive) | > 100 µM (inactive) | > 100 µM (inactive) | > 100 µM (inactive) | > 100 µM (inactive) | > 100 µM (inactive) | > 100 µM (inactive) | > 100 µM (inactive) | > 100 µM (inactive) | > 100 µM (inactive) | > 100 µM (inactive) | > 100 µM (inactive) | > 100 µM (inactive) | > 100 µM (inactive) |  |
| CCN(CC)C(=S)SC(=S)N(CC)CC | 23.7 µM (inactive) | 28.5 µM (inactive) |  | 18.3 µM (inactive) | 42.6 µM (inactive) | 21 µM (inactive) | 50.7 µM (inactive) | 28.1 µM (inactive) | 23.4 µM (inactive) | 32.9 µM (inactive) | 26.2 µM (inactive) | 37 µM (inactive) | 41.9 µM (inactive) | 36.6 µM (inactive) | 31.3 µM (inactive) | 5.07 µM (inactive) | 0.0482 µM (active) | 28.6 µM (inactive) | 36 µM (inactive) | 28 µM (inactive) |
| O=C(O)c1ccc2nc(-c3ccccn3)c(-c3ccccn3)nc2c1 | > 100 µM (inactive) |  | > 100 µM (inactive) | > 100 µM (inactive) | > 100 µM (inactive) | > 100 µM (inactive) | > 100 µM (inactive) | > 100 µM (inactive) | > 100 µM (inactive) | > 100 µM (inactive) | > 100 µM (inactive) |  | > 100 µM (inactive) | > 100 µM (inactive) | > 100 µM (inactive) | > 100 µM (inactive) | > 100 µM (inactive) | > 100 µM (inactive) | > 100 µM (inactive) | > 100 µM (inactive) |
| O=C1Cc2c([nH]c3c(Cl)cccc23)-c2ccccc2N1 | > 100 µM (inactive) | > 100 µM (inactive) | > 100 µM (inactive) | > 100 µM (inactive) |  | > 100 µM (inactive) | 87.3 µM (inactive) | > 100 µM (inactive) | > 100 µM (inactive) | > 100 µM (inactive) | > 100 µM (inactive) | > 100 µM (inactive) | > 100 µM (inactive) | > 100 µM (inactive) |  | > 100 µM (inactive) | > 100 µM (inactive) | > 100 µM (inactive) | > 100 µM (inactive) | > 100 µM (inactive) |
| c1cc(C[S+]2CCCC2)sc1C[S+]1CCCC1 | > 100 µM (inactive) | > 100 µM (inactive) | > 100 µM (inactive) | > 100 µM (inactive) | > 100 µM (inactive) | > 100 µM (inactive) | > 100 µM (inactive) | > 100 µM (inactive) | > 100 µM (inactive) | > 100 µM (inactive) | > 100 µM (inactive) | > 100 µM (inactive) | > 100 µM (inactive) | > 10 µM (inactive) |  | > 100 µM (inactive) | > 100 µM (inactive) | > 100 µM (inactive) | > 100 µM (inactive) | > 100 µM (inactive) |

From ChEMBL document CHEMBL1201862, “PubChem BioAssay data set” (2004)
